This is an account of results in patent publication US20170334899A1, “AMINO-SUBSTITUTED ISOTHIAZOLES” (Bayer Pharma Aktiengesellschaft, priority 2014, published 2017).

This test concerns human cervical tumor cell line HeLa (ATCC CCL-2). In words: SAC-Formation - Paclitaxel-Induced Assay. It counts as cell-based. To be noted: Homo sapiens, HeLa, 24 h, HeLa cells, paclitaxel 0.05 μM, test range 0.005 μM-20 μM, read-out: IC50 [mol/l] SAC-Formation - Paclitaxel-Induced Assay. Put shortly:
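HeLa cells incubated overnight at 37° C, then given paclitaxel (0.05 μM final) plus test compound (0.005–20 μM, 0.5% DMSO) together for 24 h at 37° C. Fixed cells stained for phospho-histone H3 Ser10 (mitotic cells) and Hoechst 33342 (cell count); imaging-derived mitotic index fitted by four-parameter Hill equation.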
For `Cc1nsc(Nc2cnc(C(F)(F)F)cn2)c1C(=O)Nc1ccc(N(C)C)c(OCCCN(C)CCC(F)(F)F)c1` [Example 300, N-[4-(dimethylamino)-3-{3-[methyl(3,3,3-trifluoropropyl)amino]propoxy}phenyl]-3-methyl-5-{[5-(trifluoromethyl)pyrazin-2-yl]amino}-1,2-thiazole-4-carboxamide], the IC50 was 2 µM.
With `CC(=O)N1CCC(Oc2ccc(NC(=O)c3c(C)nsc3Nc3cnc4ccccc4n3)cn2)CC1` [Example 22, N-{6-[(1-acetylpiperidin-4-yl)oxy]pyridin-3-yl}-3-methyl-5-(quinoxalin-2-ylamino)-1,2-thiazole-4-carboxamide], the IC50 amounted to 2.1 µM.
The figure for `Cc1nsc(Nc2cnc3ccccc3n2)c1C(=O)Nc1cccc(NS(=O)(=O)C2CCN(C(=O)OC(C)(C)C)CC2)c1` [Example 258, tert-butyl 4-{[3-({[3-methyl-5-(quinoxalin-2-ylamino)-1,2-thiazol-4-yl]carbonyl}amino)phenyl]sulfamoyl} piperidine-1-carboxylate] is 2 µM; for `CCNC(=O)c1cccc(NC(=O)c2c(C)nsc2Nc2ccc(C#N)cn2)c1` [Example 252, 5-[(5-cyanopyridin-2-yl)amino]-N-[3-(ethylcarbamoyl)phenyl]-3-methyl-1,2-thiazole-4-carboxamide] it is 0.12 µM; for `Cc1nsc(Nc2cnc3ccccc3n2)c1C(=O)Nc1cccc(C(=O)NC2CC2)c1` [Example 249, N-[3-(cyclopropylcarbamoyl)phenyl]-3-methyl-5-(quinoxalin-2-ylamino)-1,2-thiazole-4-carboxamide] it is 1.1 µM.
For `Cc1nsc(Nc2cnc3ccccc3n2)c1C(=O)Nc1cccc(NS(=O)(=O)C2CN(CCC(F)(F)F)C2)c1` [Example 288, 3-methyl-5-(quinoxalin-2-ylamino)-N-[3-({[1-(3,3,3-trifluoropropyl)azetidin-3-yl]sulfonyl}amino)phenyl]-1,2-thiazole-4-carboxamide] the value was 6.1 µM; for `Cc1nsc(Nc2cnc(C(F)(F)F)cn2)c1C(=O)Nc1ccc(OCCCNCC(F)F)nc1` [Example 293, N-(6-{3-[(2,2-difluoroethyl)amino]propoxy}pyridin-3-yl)-3-methyl-5-{[5-(trifluoromethyl)pyrazin-2-yl]amino}-1,2-thiazole-4-carboxamide], 4 µM; for `Cc1nsc(Nc2cnc(C(F)(F)F)cn2)c1C(=O)Nc1ccc(C(=O)NC2CN(CC(F)(F)F)C2)cc1` [Example 270, 3-methyl-N-(4-{[1-(2,2,2-trifluoroethyl)azetidin-3-yl]carbamoyl}phenyl)-5-{[5-(trifluoromethyl)pyrazin-2-yl]amino}-1,2-thiazole-4-carboxamide], 10 µM.
The figure for `Cc1nsc(Nc2cnc(C(F)(F)F)cn2)c1C(=O)Nc1ccc(F)c(OCCCN(C)CC(F)F)c1` [Example 301, N-(3-{3-[(2,2-difluoroethyl)(methyl)amino]propoxy}-4-fluorophenyl)-3-methyl-5-{[5-(trifluoromethyl)pyrazin-2-yl]amino}-1,2-thiazole-4-carboxamide] is 0.81 µM.
On to `Cc1nsc(Nc2cnc(C(F)(F)F)cn2)c1C(=O)Nc1ccc(F)c(OCCCN(C)CC(F)(F)F)c1` [Example 302, N-(4-fluoro-3-{3-[methyl(2,2,2-trifluoroethyl)amino]propoxy}phenyl)-3-methyl-5-{[5-(trifluoromethyl)pyrazin-2-yl]amino}-1,2-thiazole-4-carboxamide], for which the IC50 was 0.43 µM.
Regarding `COC(=O)CCCc1ccc(NC(=O)c2c(C)nsc2Nc2cc(C#N)ccn2)cc1` [Example 256, methyl 4-{4-[({5-[(4-cyanopyridin-2-yl)amino]-3-methyl-1,2-thiazol-4-yl}carbonyl)amino]phenyl}butanoate], the IC50 is 3.6 µM.
In the case of `Cc1nsc(Nc2cnc(C(F)(F)F)cn2)c1C(=O)Nc1ccc(OCCCNCCC(F)(F)F)nc1` [Example 294, 3-methyl-5-{[5-(trifluoromethyl)pyrazin-2-yl]amino}-N-(6-{3-[(3,3,3-trifluoropropyl)amino]propoxy}pyridin-3-yl)-1,2-thiazole-4-carboxamide], the IC50 turned out to be 0.56 µM.
Regarding `Cc1nsc(Nc2cnc(C(F)(F)F)cn2)c1C(=O)Nc1ccc(OCCCO)nc1` [Example 279, N-[6-(3-hydroxypropoxy)pyridin-3-yl]-3-methyl-5-{[5-(trifluoromethyl)pyrazin-2-yl]amino}-1,2-thiazole-4-carboxamide], the IC50 stood at 0.72 µM.
The figure for `Cc1nsc(Nc2cnc(C(F)(F)F)cn2)c1C(=O)Nc1ccc(OC2CCN(CC(F)F)C2)nc1` (stereo not shown) [Example 296, N-(6-{[1-(2,2-difluoroethyl)pyrrolidin-3-yl]oxy}pyridin-3-yl)-3-methyl-5-{[5-(trifluoromethyl)pyrazin-2-yl]amino}-1,2-thiazole-4-carboxamide] is 0.3 µM; for `CCN1CCC(Oc2ccc(NC(=O)c3c(C)nsc3Nc3cc(C#N)ccn3)cn2)CC1` [Example 26, 5-[(4-Cyanopyridin-2-yl)amino]-N-{6-[(1-ethylpiperidin-4-yl)oxy]pyridin-3-yl}-3-methyl-1,2-thiazole-4-carboxamide] it is 20 µM.
The figure for `Cc1nsc(Nc2cnc3ccccc3n2)c1C(=O)Nc1ccc(N2CCN(C(=O)OC(C)(C)C)CC2)nc1` [Example 248, tert-butyl 4-[5-({[3-methyl-5-(quinoxalin-2-ylamino)-1,2-thiazol-4-yl]carbonyl}amino)pyridin-2-yl]piperazine-1-carboxylate] is 0.94 µM; for `Cc1nsc(Nc2cnc3ccccc3n2)c1C(=O)Nc1cccc(NS(=O)(=O)C2CCN(CC(F)(F)F)CC2)c1` [Example 281, 3-methyl-5-(quinoxalin-2-ylamino)-N-[3-({[1-(2,2,2-trifluoroethyl)piperidin-4-yl]sulfonyl}amino)phenyl]-1,2-thiazole-4-carboxamide] it is 3.9 µM; for `Cc1nsc(Nc2cnc(C(F)(F)F)cn2)c1C(=O)Nc1ccc(F)c(OCCCN(C)CCC(F)(F)F)c1` [Example 303, N-(4-fluoro-3-{3-[methyl(3,3,3-trifluoropropyl)amino]propoxy}phenyl)-3-methyl-5-{[5-(trifluoromethyl)pyrazin-2-yl]amino}-1,2-thiazole-4-carboxamide] it is 0.032 µM.
The figure for `Cc1nsc(Nc2cnc3ccccc3n2)c1C(=O)Nc1cccc(C(=O)NC(C)C)c1` [Example 253, N-[3-(isopropylcarbamoyl)phenyl]-3-methyl-5-(quinoxalin-2-ylamino)-1,2-thiazole-4-carboxamide] is 2.2 µM; for `Cc1nsc(Nc2cnc(C(F)(F)F)cn2)c1C(=O)Nc1ccc(F)c(OC2CCN(CC(F)(F)F)C2)c1` (stereo not shown) [Example 315, N-(4-fluoro-3-{[1-(2,2,2-trifluoroethyl)pyrrolidin-3-yl]oxy}phenyl)-3-methyl-5-{[5-(trifluoromethyl)pyrazin-2-yl]amino}-1,2-thiazole-4-carboxamide] it is 0.06 µM; for `CCN1CCN(C(=O)c2ccc(NC(=O)c3c(C)nsc3Nc3cncc(C(F)(F)F)n3)cc2)CC1` [Example 275, N-{4-[(4-ethylpiperazin-1-yl)carbonyl]phenyl}-3-methyl-5-{[6-(trifluoromethyl)pyrazin-2-yl]amino}-1,2-thiazole-4-carboxamide] it is 4.4 µM.
Consider `Cc1nsc(Nc2cncc(C(F)(F)F)n2)c1C(=O)Nc1ccc(C(=O)N2CCN(CC(F)(F)F)CC2)cc1` [Example 272, 3-methyl-N-(4-{[4-(2,2,2-trifluoroethyl)piperazin-1-yl]carbonyl}phenyl)-5-{[6-(trifluoromethyl)pyrazin-2-yl]amino}-1,2-thiazole-4-carboxamide], for which the IC50 is 2.4 µM.
`Cc1nsc(Nc2cnc3ccccc3n2)c1C(=O)Nc1cccc(NS(=O)(=O)C2CCN(CC(F)F)CC2)c1` [Example 282, N-[3-({[1-(2,2-difluoroethyl)piperidin-4-yl]sulfonyl}amino)phenyl]-3-methyl-5-(quinoxalin-2-ylamino)-1,2-thiazole-4-carboxamide]: the IC50 was 3.5 µM.
The figure for `Cc1nsc(Nc2ccc(C#N)cn2)c1C(=O)Nc1cccc(C(=O)NC2CC2)c1` [Example 250, 5-[(5-cyanopyridin-2-yl)amino]-N-[3-(cyclopropylcarbamoyl)phenyl]-3-methyl-1,2-thiazole-4-carboxamide] is 4.7 µM; for `Cc1nsc(Nc2cncc(C(F)(F)F)n2)c1C(=O)Nc1ccc(C(=O)N2CCN(CCF)CC2)cc1` [Example 274, N-(4-{[4-(2-fluoroethyl)piperazin-1-yl]carbonyl}phenyl)-3-methyl-5-{[6-(trifluoromethyl)pyrazin-2-yl]amino}-1,2-thiazole-4-carboxamide] it is 9 µM.
For `Cc1nsc(Nc2cnc(C(F)(F)F)cn2)c1C(=O)Nc1ccc(OC2CCN(CCF)C2)nc1` (stereo not shown) [Example 295, N-(6-{[1-(2-fluoroethyl)pyrrolidin-3-yl]oxy}pyridin-3-yl)-3-methyl-5-{[5-(trifluoromethyl)pyrazin-2-yl]amino}-1,2-thiazole-4-carboxamide] the value was 1.2 µM.
Turning to `Cc1nsc(Nc2cncc(C(F)(F)F)n2)c1C(=O)Nc1ccc(OCCCO)nc1` [Example 278, N-[6-(3-hydroxypropoxy)pyridin-3-yl]-3-methyl-5-{[6-(trifluoromethyl)pyrazin-2-yl]amino}-1,2-thiazole-4-carboxamide], the IC50 came to 1.4 µM.
`Cc1nsc(Nc2cnc(C(F)(F)F)cn2)c1C(=O)Nc1ccc(F)c(OCC2CCN(CCF)CC2)c1` [Example 309, N-(4-fluoro-3-{[1-(2-fluoroethyl)piperidin-4-yl]methoxy}phenyl)-3-methyl-5-{[5-(trifluoromethyl)pyrazin-2-yl]amino}-1,2-thiazole-4-carboxamide]: the IC50 was 0.61 µM.
